Measured values published in patent publication US20190076510A1, “PROTEIN KINASE C INHIBITION TO EXTEND TISSUE PLASMINOGEN ACTIVATOR TREATMENT FOR ISCHEMIC DISEASE” (THE REGENTS OF THE UNIVERSITY OF MICHIGAN, priority 2017, published 2019).

What was measured:
[1] = system: photothrombotic MCAO mice; experiment: MCAO-induced cerebral vascular permeability to fluorescent-labeled 70 kDa dextran; assay type: in vivo, mouse; details: separate experiments
[2] = system: vascular permeability in the eye; details: in vivo; cited from earlier work
[3] = system: photothrombotic MCAO mice; experiment: Hemorrhagic transformation (ICH) after MCAO with late rtPA thrombolysis; assay type: in vivo, mouse; details: rtPA given 5 hours after stroke
Description: Transgenic mouse lines and commercially available laboratory mouse strains (Jackson Labs) were bred using standard procedures. These strains include wild-type C57BL/6J mice, and C57BL/6J mice with diet-induced obesity. Transgenic mice include mice deficient in tissue type plasminogen activator (tPA^−/−), mice expressing the S490A mutant of occludin, and mice expressing Cre under the vascular endothelium. The numbers of mice used are necessary to maintain the breeding colonies and to obtain statistical significance in the experiments. Mouse pups are weaned at 3 weeks of age. Mice are marked with standard mouse ear tags. […] Both male and female mice are used, but are initially analyzed separately. […]
Using the Tek promoter for control of stop flox expression, however, leads to 85% of bone marrow-derived cells expressing the gene as well as endothelial cells (Genesis. 2010 September; 48(9):563-7)). […] Expression of Tg:S490AOcc^+/+ reduced permeability induced by MCAO, as measured using 70 kDa dextran labeled with Texas Red (dextran). […] Five images surrounding the infarct were taken and mean pixel intensity was determined using Imaris software, averaged for each mouse with n of at least 8 mice. […]
In addition to these studies, the effect of the PKC-β inhibition on hemorrhagic transformation was measured after tPA induction in MCAO mice. […]

acute ischemic stroke = details: intravenous rtPA within 3-4.5 hours; cited from earlier work

CN(C)C[C@@H]1CCn2cc(c3ccccc32)C2=C(C(=O)NC2=O)c2cn(c3ccccc23)CCO1 [LY333531]
reduction in cerebral permeability to dextran (surgical removal of ischemic region and penumbra, dye extraction) [1]: ~30%

CN(C)C[C@@H]1CCn2cc(c3ccccc32)C2=C(C(=O)NC2=O)c2cn(c3ccccc23)CCO1 [Ruboxistaurin®]
vascular permeability and edema in the eye [2]: shown to reduce vascular permeability and edema in the eye

rtPA: recombinant tissue plasminogen activator, thrombolytic
hemorrhagic transformation from late rtPA treatment (area of hemoglobin in serial brain sections) [3]: clear increase | patients having absolute benefit (acute ischemic stroke): 90 out of 1000
